# Test results reported in patent US20040029860A1, “Anti-proliferative drugs” (priority 2000, published 2004).
# “Also recorded” adds a separate entry of the source. Read-outs that look alike come from different tables or passages of the source.
# Columns and labels:
# HaCat I5 keratinocytes = assay: keratinocyte viability, Neutral red, HaCat I5; format: cell-based, human; details: for cell viability HaCat I5 (in words): 5-100 μM, 24 hr, Neutral red, FIG. 13B, 15B; for IC50: Homo sapiens, HaCaT
# Description: (§1) The drugs were administered at concentrations within the range of 5-100 μM and cell viability was measured 24 hr post-administration by Neutral red staining. The efficiency of the agents against viability of the cell lines was evaluated also by comparison with two commonly used anticancer agents (Doxorubicin and 5-fluorouracil (5-FU)) at equimolar concentrations.
# HaCat keratinocytes = assay: keratinocyte viability, Neutral red, HaCat; format: cell-based, human; details: for cell viability HaCat (in words): 5-100 μM, 24 hr, Neutral red, FIG. 13A, 15A; for IC50: Homo sapiens, HaCaT
# Description: as §1
# mouse melanoma (B-16) = assay: cell viability, melanoma B16; format: cell-based
# Description: (§2) Cyclic antidepressants at varying concentrations (between 10PM and 100 μM) was applied to neuroblastoma SH-SY5T, 3LL lung carcinoma, prostate (LN-CapAp), melanoma B16, and cell viability was determined as described above.
# different cell-lines = assay: mean IC50 over cell lines and therapeutic index
# rat glioblastoma (C6) = assay: cell viability, glioma C6; format: cell-based; details: for IC50: Table 1A
# [1] = test system: human neuroblastoma (SK-N-SH); assay: cell viability (neutral red, Almar Blue, Hoechst dye), neuroblastoma SK-N-SH; format: cell-based
# [2] = test system: human neuroblastoma (SH-SY5T); assay: cell viability, neuroblastoma SH-SY5T; format: cell-based; details: Homo sapiens
# Description: The effect of paroxetine on primary tissue cultures was also evaluated. […] The viability of the cells after treatment with paroxetine was determined by neutral red (NR) technology 24 hr. post treatment.
# as §2
# [3] = test system: mouse Lewis lung carcinoma (3LL); assay: in vivo effect on Lewis lung carcinoma (3LL) in mice; details: 3LL inoculated C57 mice, i.p. daily, thioridazine 15 mg/kg, others 30 mg/kg; for lungs weight / tumor size compared to control group: FIG. 5
# Description: Female C57 black mice aged 4 weeks were used in order to evaluate the in vivo effect of cyclic psychotropic agents on tumor cells. In particular, animals were divided into 5 groups (6-8 mice each). Animals were inoculated with mouse Lewis lung carcinoma (3LL, 0.5 million each) by i.v. injection to the tail vein and then treated by i.p. injection daily for 3 weeks with the following different agents
# (5) Paroxetine (30 mg/kg).
# During the treatment period animals were inspected daily and their body weight registered twice a week. […] After the four weeks of treatment the mice were sacrificed and their lungs dissected and weighted.
# [4] = test system: doxorubicin resistant neuroblastoma cells (SH-SY5T); assay: sensitization to doxorubicin, doxorubicin resistant neuroblastoma SH-SY5T; format: cell-based, human; details: dose dependant, FIG. 6E, 6F
# B16 melanoma cells [5] = assay: sensitization to doxorubicin, B16 melanoma cells; format: cell-based, mouse; details: clomipramine 10, […], 20 μM with doxorubicin 1, 2.5, 5 μM; FIG. 6B
# MDR B16 melanoma = assay: sensitization to doxorubicin, MDR B16 melanoma; format: cell-based, mouse; details: dose dependant, FIG. 6C
# mouse lung sarcoma (3LL) = assay: cell viability, lung 3LL; format: cell-based; details: for IC50: Mus musculus, Table 1B, read-out: Cell viability IC50 Lungs Sarcoma 3LL
# Description: In another experiment the effect of clotiapine at the same concentrations on the viability of mouse lung carcinoma (3LL) cells was determined.
# as §2
# [6] = test system: mouse embryo whole brain culture; assay: primary tissue culture, whole brain; format: cell-based; details: read-out: IC50 whole brain tissue
# [7] = test system: human prostate cancer PC-3; assay: cell viability, prostate PC-3; format: cell-based; details: for inhibition of cell proliferation, PC-3 (in words): 1 μM-100 μM, androgen independent, FIG. 2B; for IC50: Table 1A, read-out: Viability IC50 Prostate PC3
# [8] = test system: human prostate (LN-CapAp); assay: cell viability, prostate LN-Cap; format: cell-based; details: for inhibition of cell proliferation, LN-Cap (in words): 1 μM-100 μM, androgen dependent, FIG. 2A; for IC50: Table 1A, read-out: Viability IC50 Prostate LN-Cap
# Description: The effect of trifluoperazine and flupentixol was studied in two cell-lines of human prostate cancer: androgen dependent (LN-Cap) and androgen independent (PC-3).
# as §2
# p53 mutant = p53 mutant expression, western blotting in glioma C6; format: cell-based, rat; details: 30 and 60 μM, FIG. 8
# B16 melanoma cells [9] = format: in vivo
# Description: Male C57 black mice aged 5-7 weeks were used. Animals were inoculated with B16 melanoma cells by iv. injection (200,000 cells/mouse) to the tail vein. […]. Body weight was recorded three times weekly during the experiment and survival was registered. Animals were sacrificed 24 days after cell inoculation, and lungs were dissected and weighted.
# HaCat I5 cells = assay: DNA fragmentation, flow cytometry, HaCat I5; format: cell-based, human; details: basal 10.23%
# Description: (§3) DNA fragmentation was determined by flow cytometric analysis of propidium iodide-stained cells according to the method of Vindelov et al Vindelov, L. L., et al. Cytometry.
# B16 melanoma = details: for mean number of metastases: controls 53.8+; for mean lungs weight: day 27, controls 685; for mice with confluent lungs: controls 6/7
# Description: Female C57 mice aged 5-7 weeks were used, animals were divided into 3 treatment groups:
# 1. Controls: B16 inoculated vehicle treated;
# Half of the animals were sacrificed after 21 days and half after 27 days. Lungs weight and number of metastases were recorded.
# Melanoma B16 cells [10] = test system: Melanoma B16 cells
# Description: Animals were divided into three groups:
# 1. Controls B16 with no therapy;
# Water consumption was registered daily, and calculation of dose was performed according to the mean consumed water. Body weight was registered 3 time/week.
# HaCat cells = assay: DNA fragmentation, flow cytometry, HaCat; format: cell-based, human; details: basal 29%
# Description: as §3
# Melanoma B16 cells [11] = test system: Melanoma B16 cells; remark: listed apart in the source
# Description: Mice C57 black females ages 5-7 weeks were used. Mice were inoculated with Melanoma B16 cells and divided randomly (7-8/cage). Animals were divided into three groups:
# 1. Control-B16 cells with no therapy;
# 2. Treatment with doxorubicin 4 mg/kg i.p given once (3 days later).
# [12] = Mus musculus, Table 1B, read-out: Cell viability IC50 Melanoma 16B
# [13] = Mus musculus, Table 1A, read-out: Viability IC50 Melanoma B16
# [14] = primary culture, data not shown
smiles,measurement,setting,value
"O=c1[nH]cc(F)c(=O)[nH]1 [5-FU, 5-fluorouracil]",cell viability HaCat I5 (in words),HaCat I5 keratinocytes,resistant
same,cell viability HaCat (in words),HaCat keratinocytes,resistant
CN(C)CCC=C1c2ccccc2CCc2ccccc21 [Amitriptiline],IC50,mouse melanoma (B-16); [12],64 µM
same,IC50,different cell-lines; read-out: IC50 Mean +/− SD,64 µM
CN(C)CCCN1c2ccccc2Sc2ccc(Cl)cc21 [Chlorpromazine],IC50,rat glioblastoma (C6); Rattus norvegicus,22 µM
same,IC50,"[1]; Homo sapiens, SK-N-SH, Table 1A",100 µM
same,IC50,mouse melanoma (B-16); [13],46 µM
same,IC50,"[2]; Table 1A, read-out: Viability IC50 Neuroblastoma SH-SY5T",15 µM
same,IC50,different cell-lines; read-out: IC50 Mean ± SD,45.7 ± 33.3 µM
CN(C)CCCN1c2ccccc2CCc2ccc(Cl)cc21 [Clomipramine],survival rate during four weeks of treatment,[3],7/7
same,lungs weight / tumor size compared to control group,[3],effective in reducing tumor size
same,potentiation of doxorubicin toxicity (in words),[4],potentiate the toxicity of doxorubicin
same,cell viability HaCat I5 (in words),HaCat I5 keratinocytes,effective in reducing cell viability
same,cell viability in combination with doxorubicin,B16 melanoma cells [5],less than 15 % from control
same,cell viability in combination with doxorubicin (in words),MDR B16 melanoma,significantly decreased
same,cell viability HaCat (in words),HaCat keratinocytes,effective in reducing cell viability
CN1CCN(C2=Nc3ccccc3Sc3ccc(Cl)cc32)CC1 [Clotiapine],IC50,"HaCat I5 keratinocytes; mean of the determinations, read-out: IC50 HaCat I5 ME",> 100 µM
same,IC50,"HaCat I5 keratinocytes; single determinations, read-out: IC50 HaCat I5",> 100 µM
same,"cell viability, 3LL lung carcinoma (in words)","mouse lung sarcoma (3LL); 10 μM-100 μM, FIG. 3B, 4B",effective in reducing viability
same,IC50,mouse lung sarcoma (3LL),40 µM
same,IC50,mouse melanoma (B-16); [12],45 µM
same,IC50,"HaCat keratinocytes; mean of the determinations, read-out: IC50 HaCat ME",> 100 µM
same,IC50,"HaCat keratinocytes; single determinations, read-out: IC50 HaCat",> 100 µM
CN1CCN(C2=Nc3cc(Cl)ccc3Nc3ccccc32)CC1 [Clozapine],IC50,[6]; [14],> 200 µM
CNCCC(Oc1ccc(C(F)(F)F)cc1)c1ccccc1 (stereo not shown) [Fluoxetine],survival rate during four weeks of treatment,[3],5/7
same,lungs weight / tumor size compared to control group,[3],effective in reducing tumor size
same,potentiation of doxorubicin toxicity (in words),[4],potentiate the toxicity of doxorubicin
same,cell viability HaCat I5 (in words),HaCat I5 keratinocytes,effective in reducing cell viability
same,cell viability HaCat (in words),HaCat keratinocytes,effective in reducing cell viability
OCCN1CCN(CC/C=C2/c3ccccc3Sc3ccc(C(F)(F)F)cc32)CC1 [Flupentixiol],IC50,rat glioblastoma (C6),14 µM
same,"inhibition of cell proliferation, PC-3 (in words)",[7],effective in inhibition of cell proliferation
same,IC50,[7],18 µM
same,"inhibition of cell proliferation, LN-Cap (in words)",[8],effective in inhibition of cell proliferation
same,IC50,[8],23 µM
same,IC50,"mouse melanoma (B-16); Table 1A, read-out: Viability IC50 Melanoma B16",18 µM
same,IC50,"different cell-lines; read-out: IC50 Mean ± SD, Table 1A, mean over the cell lines",18.2 ± 3.2 µM
O=C(CCCN1CCC(O)(c2ccc(Cl)cc2)CC1)c1ccc(F)cc1 [Haloperidol],IC50,[6]; [14],> 200 µM
CN(C)CCCN1c2ccccc2CCc2ccccc21 [Imipramine],IC50,mouse lung sarcoma (3LL),12 µM
same,IC50,"[2]; Table 1B, read-out: Cell viability IC50 Neuroblastoma SH-SY5T",69 µM
same,IC50,different cell-lines; read-out: IC50 Mean +/− SD,38.5 µM
Cc1nc2n(c(=O)c1CCN1CCC(c3noc4cc(F)ccc34)CC1)CCCC2 [Risperidone],IC50,[6],> 200 µM
CCN1CCCC1CNC(=O)c1cc(S(N)(=O)=O)ccc1OC (stereo not shown) [Sulpiride],Viability IC50 Glioma C6,rat glioblastoma (C6); Table 1C,Non Toxic
same,IC50,[6]; [14],> 200 µM
same,Viability IC50 Prostate LN-CapAp,[8]; Table 1C,Non Toxic
same,Viability IC50 Neuroblastoma SK-N-SH,[1]; Table 1C,Non Toxic
CSc1ccc2c(c1)N(CCC1CCCCN1C)c1ccccc1S2 (stereo not shown) [Thioridazine],survival rate during four weeks of treatment,[3],7/7
same,lungs weight / tumor size compared to control group,[3],effective in reducing tumor size
same,mean decrease in expression of p53 mutant,p53 mutant,75%
same,cell viability HaCat I5 (in words),HaCat I5 keratinocytes,effective in reducing cell viability; also recorded: responded
same,survival rate,B16 melanoma cells [9]; 2.5 mg/kg i.p. 3 times/week,4/5
same,survival rate,B16 melanoma cells [9]; 5 mg/kg i.p. 3 times/week,3/4
same,survival rate,B16 melanoma cells [9]; 10 mg/kg i.p. 3 times/week,5/5
same,lungs weight,"B16 melanoma cells [9]; 20 mg/kg compared to 2.5 mg/kg (p=0.05), 24 days after inoculation",significant decrease
same,survival rate,B16 melanoma cells [9]; 20 mg/kg i.p. 3 times/week,5/5
same,apoptosis (DNA fragmentation),HaCat I5 cells; 25 μM,74.5%
same,apoptosis (DNA fragmentation),HaCat I5 cells; 50 μM,76.6%
same,mean number of metastases,"B16 melanoma; 10 mg/kg i.p. x3/week, after 21 days",46.1
same,mean lungs weight,B16 melanoma; 10 mg/kg,520 mg
same,mice with confluent lungs,B16 melanoma; 10 mg/kg,6/7
same,mean number of metastases,"B16 melanoma; […] mg/kg i.p. x3/week, after 21 days",28.5
same,mean lungs weight,B16 melanoma; […] mg/kg,335 mg
same,mice with confluent lungs,B16 melanoma; […] mg/kg,2/7
same,lungs weight,"B16 melanoma; after 21 days, vs controls",No difference
same,effective doses,"B16 melanoma; parenteral route, B16 melanoma in mice",15 to 20 mg/kg
same,toxic concentrations,"B16 melanoma; parenteral route, mice",higher than 30 mg/kg
same,cell viability HaCat (in words),HaCat keratinocytes,effective in reducing cell viability; also recorded: responded
same,mice with big or conglomerate metastases,"Melanoma B16 cells [10]; 20-30 mg/kg per day, after 24 days, same rate as controls",1/7
same,animals with confluent metastases,"Melanoma B16 cells [10]; 27 and 30 days, controls 6/11",0/21
same,big or confluent metastases,"Melanoma B16 cells [10]; 30-40 mg/kg per day, after 24 days",No big or confluent metastases were found
same,spontaneous death during experiment,Melanoma B16 cells [10]; controls 5/18,2/36
same,body weight vs healthy and B16 controls,Melanoma B16 cells [10]; in drinking water,No difference
same,rate of DNA fragmentation,HaCat cells; 25 μM,82.8%
same,rate of DNA fragmentation,HaCat cells; 50 μM,89.3%
CN1CCN(CCCN2c3ccccc3Sc3ccc(C(F)(F)F)cc32)CC1 [Trifluoperazine],IC50,rat glioblastoma (C6); Rattus norvegicus,14 µM
same,"inhibition of cell proliferation, PC-3 (in words)",[7],effective in inhibition of cell proliferation
same,IC50,[7]; Homo sapiens,19 µM
same,"inhibition of cell proliferation, LN-Cap (in words)",[8],effective in inhibition of cell proliferation
same,IC50,"[8]; Homo sapiens, LNCaP",18 µM
same,IC50,mouse melanoma (B-16); [13],16 µM
same,IC50,different cell-lines; read-out: IC50 Mean ± SD,16.7 ± 1.9 µM
COc1cccc2c1C(=O)c1c(O)c3c(c(O)c1C2=O)C[C@@](O)(C(=O)CO)C[C@@H]3O[C@H]1C[C@H](N)[C@H](O)[C@H](C)O1 [doxorubicin],Confluent lung metastases (number of mice),"Melanoma B16 cells [11]; Table 2, of 7 total",3
same,Early death (number of mice),"Melanoma B16 cells [11]; Table 2, of 7 total",2
same,Non-confluent lung metastases (number of mice),"Melanoma B16 cells [11]; Table 2, of 7 total",2
same,number of animals presenting non confluent lungs,"Melanoma B16 cells [11]; after 21 days, B16 control 0/7",2/7
same,lungs weight,"Melanoma B16 cells [11]; after 21 days, B16 controls 770+/−95",538 ± 137 mg
same,survival / animals died,"Melanoma B16 cells [11]; doxorubicin 4 mg/kg i.p. once, thioridazine 25-35 mg/kg/day via drinking water",2/7
same,cell viability HaCat I5 (in words),HaCat I5 keratinocytes,only the HaCat (non tumorigenic) cells responded
same,cell viability HaCat (in words),HaCat keratinocytes,same equimolar IC50 levels as for thioridazine
